According to patent publication US7741281B2, “Hepatitis C virus inhibitors” (Bristol-Myers Squibb Company, priority 2005, dated 2010):
Like-named read-outs stand apart in the source and are kept apart here.

Test system: HCV replicon in HUH-7 cells
Experiment: HCV replicon FRET assay
Assay type: cell-based, HCV strain 1b
Conditions: Hepatitis C virus
Excerpt: An HCV replicon whole cell system was established as described by Lohmann V, Korner F, Koch J, Herian U, Theilmann L, Bartenschlager R., Science 285(5424):110-3 (1999). This system enabled us to evaluate the effects of our HCV Protease compounds on HCV RNA replication. Briefly, using the HCV strain 1b sequence described in the Lohmann paper (Assession number: AJ238799), an HCV cDNA was synthesized by Operon Technologies, Inc. (Alameda, Calif.), and the full-length replicon was then assembled in plasmid pGem9zf(+) (Promega, Madison, Wis.) using standard molecular biology techniques. The replicon consists of (i) the HCV 5′ UTR fused to the first 12 amino acids of the capsid protein, (ii) the neomycin phosphotransferase gene (neo), (iii) the IRES from encephalomyocarditis virus (EMCV), and (iv) HCV NS3 to NS5B genes and the HCV 3′ UTR. Plasmid DNAs were linearized with ScaI and RNA transcripts were synthesized in vitro using the T7 MegaScript transcription kit (Ambion, Austin, Tex.) according to manufacturer's directions. In vitro transcripts of the cDNA were transfected into the human hepatoma cell line, HUH-7. […] Resulting cell lines were characterized for positive and negative strand RNA production and protein production over time.
The HCV replicon FRET assay was developed to monitor the inhibitory effects of compounds described in the disclosure on HCV viral replication. HUH-7 cells, constitutively expressing the HCV replicon, were grown in Dulbecco's Modified Eagle Media (DMEM) (Gibco-BRL) containing 10% Fetal calf serum (FCS) (Sigma) and 1 mg/ml G418 (Gibco-BRL). Cells were seeded the night before (1.5×10^4 cells/well) in 96-well tissue-culture sterile plates. Compound and no compound controls were prepared in DMEM containing 4% FCS, 1:100 Penicillin/Streptomysin (Gibco-BRL), 1:100 L-glutamine and 5% DMSO in the dilution plate (0.5% DMSO final concentration in the assay). Compound/DMSO mixes were added to the cells and incubated for 4 days at 37° C. After 4 days, cells were first assessed for cytotoxicity using alamar Blue (Trek Diagnotstic Systems) for a CC50 reading. The toxicity of compound (CC50) was determined by adding 1/10th volume of alamar Blue to the media incubating the cells. After 4 hours, the fluorescence signal from each well was read, with an excitation wavelength at 530 nm and an emission wavelength of 580 nm, using the Cytofluor Series 4000 (Perspective Biosystems). Plates were then rinsed thoroughly with Phosphate-Buffered Saline (PBS) (3 times 150 μl). The cells were lysed with 25 μl of a lysis assay reagent containing an HCV protease substrate (5× cell Luciferase cell culture lysis reagent (Promega #El 53A) diluted to 1× with distilled water, NaCl added to 150 mM final, the FRET peptide substrate (as described for the enzyme assay above) diluted to 10 μM final from a 2 mM stock in 100% DMSO. […]. The plate was then placed into the Cytofluor 4000 instrument which had been set to 340 nm excitation/490 nm emission, automatic mode for 21 cycles and the plate read in a kinetic mode. EC50 determinations were carried out as described for the IC50 determinations.

SMILES: COc1c(O[C@@H]2C[C@H]3C(=O)N[C@]4(C(=O)NS(=O)(=O)C5CC5)C[C@H]4/C=C\CCCCC[C@H](NC(=O)OC(C)(C)C)C(=O)N3C2)ccc2c(Cl)nccc12 [Compound 3]
- EC50 (96 h, HUH-7 replicon cells, 4 days, read-out: EC50 value in the replicon FRET assay): 0.0146 µM
- EC50 (Huh-7, HCV replicon, read-out: EC50 Activity Range): < 0.1 µM
